Reference: ChEMBL document CHEMBL1201862, “PubChem BioAssay data set” (2004)
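Step 1: Grow cells in 96-well plates. Step 2: Expose to compound for 48 hours at 5 concentrations. Step 3: Interpolate endpoints linearly; if unreached, use highest concentration. GI50 = concentration required for 50% inhibition of growth.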 Calls of active or inactive are those of the source. Cut-off read from the data, not from the text of the source: active = GI50 up to about 1.1 µM and inactive = higher.

What was measured:
Test in all cases: inhibition of tumour cell growth, NCI panel, 48 h
MOLT-4 = test system: MOLT-4
TK-10 = test system: TK-10
EKVX = test system: EKVX
NCI-H226 = test system: NCI-H226
A498 = test system: A498
NCI/ADR-RES = test system: NCI/ADR-RES
BT-549 = test system: BT-549
SNB-19 = test system: SNB-19
ACHN = test system: ACHN
SK-MEL-2 = test system: SK-MEL-2
SR = test system: SR
UACC-62 = test system: UACC-62
MDA-N = test system: MDA-N
MCF7 = test system: MCF7
NCI-H23 = test system: NCI-H23
HOP-62 = test system: HOP-62
HL-60 = test system: HL-60
K562 = test system: K562
COLO 205 = test system: COLO 205
UO-31 = test system: UO-31

Row | Structure (SMILES) | GI50 (MOLT-4) | GI50 (TK-10) | GI50 (EKVX) | GI50 (NCI-H226) | GI50 (A498) | GI50 (NCI/ADR-RES) | GI50 (BT-549) | GI50 (SNB-19) | GI50 (ACHN) | GI50 (SK-MEL-2) | GI50 (SR) | GI50 (UACC-62) | GI50 (MDA-N) | GI50 (MCF7) | GI50 (NCI-H23) | GI50 (HOP-62) | GI50 (HL-60) | GI50 (K562) | GI50 (COLO 205) | GI50 (UO-31)
1 | Clc1cccc(Cl)c1/C=N/C12CC3CC(CC(C3)C1)C2 | > 10 µM (inactive) | > 10 µM (inactive) | > 10 µM (inactive) | > 10 µM (inactive) | > 10 µM (inactive) | > 10 µM (inactive) | > 10 µM (inactive) | > 10 µM (inactive) | > 10 µM (inactive) | > 10 µM (inactive) | 3.26 µM (inactive) | > 10 µM (inactive) | > 10 µM (inactive) | > 10 µM (inactive) | > 10 µM (inactive) | > 10 µM (inactive) | > 10 µM (inactive) | > 10 µM (inactive) | > 10 µM (inactive) | –
2 | COC1(OC)C(/C(N)=C\O)=NC(C)(C)N1O | 66.5 µM (inactive) | – | > 100 µM (inactive) | > 100 µM (inactive) | > 100 µM (inactive) | > 100 µM (inactive) | > 100 µM (inactive) | > 100 µM (inactive) | > 100 µM (inactive) | > 100 µM (inactive) | > 100 µM (inactive) | > 100 µM (inactive) | > 100 µM (inactive) | 74.6 µM (inactive) | > 100 µM (inactive) | > 100 µM (inactive) | 20.4 µM (inactive) | > 100 µM (inactive) | 57 µM (inactive) | > 100 µM (inactive)
3 | COc1cc2c(cc1O)C(c1cc(O)c(O)c(OC)c1)C(O)(C(=O)O)C(CO)C2O (stereo not given) | 20.3 µM (inactive) | > 100 µM (inactive) | 20.7 µM (inactive) | > 100 µM (inactive) | > 100 µM (inactive) | > 100 µM (inactive) | > 100 µM (inactive) | > 100 µM (inactive) | > 100 µM (inactive) | > 100 µM (inactive) | 66.4 µM (inactive) | > 100 µM (inactive) | 16.6 µM (inactive) | 20.9 µM (inactive) | > 100 µM (inactive) | > 100 µM (inactive) | – | 47 µM (inactive) | > 100 µM (inactive) | > 100 µM (inactive)
4 | O=C([C@H](O)[C@@H](O)c1ccc(Br)cc1)C12CC3CC(CC(C3)C1)C2 | 14.4 µM (inactive) | 14 µM (inactive) | 32.4 µM (inactive) | > 49.8 µM (inactive) | 11.6 µM (inactive) | 24.9 µM (inactive) | 8.73 µM (inactive) | 19.2 µM (inactive) | 16.3 µM (inactive) | 16.3 µM (inactive) | 34.8 µM (inactive) | 7.82 µM (inactive) | 11.1 µM (inactive) | 7.31 µM (inactive) | 8.45 µM (inactive) | 7.6 µM (inactive) | – | 31.5 µM (inactive) | > 20.2 µM (inactive) | 23.7 µM (inactive)
5 | c1ccc2c(c1)nnn2C1CCCCO1 (stereo not given) | > 100 µM (inactive) | > 100 µM (inactive) | > 100 µM (inactive) | > 100 µM (inactive) | > 100 µM (inactive) | > 100 µM (inactive) | > 100 µM (inactive) | > 100 µM (inactive) | > 100 µM (inactive) | > 100 µM (inactive) | > 100 µM (inactive) | > 100 µM (inactive) | > 100 µM (inactive) | > 100 µM (inactive) | > 100 µM (inactive) | > 100 µM (inactive) | > 100 µM (inactive) | > 100 µM (inactive) | > 100 µM (inactive) | > 100 µM (inactive)
6 | O=c1oc2ccccc2n1CCN1CCCCC1 | > 100 µM (inactive) | > 100 µM (inactive) | > 100 µM (inactive) | > 100 µM (inactive) | > 100 µM (inactive) | > 100 µM (inactive) | > 100 µM (inactive) | > 100 µM (inactive) | > 100 µM (inactive) | > 100 µM (inactive) | > 100 µM (inactive) | > 100 µM (inactive) | > 100 µM (inactive) | > 100 µM (inactive) | > 100 µM (inactive) | > 100 µM (inactive) | > 100 µM (inactive) | > 100 µM (inactive) | > 100 µM (inactive) | –
7 | N#Cc1cc2c(n(C3OC(CO)C(O)C(O)C3O)c1=S)CCCCC2 (stereo not given) | > 100 µM (inactive) | > 100 µM (inactive) | – | > 100 µM (inactive) | > 100 µM (inactive) | > 100 µM (inactive) | > 100 µM (inactive) | > 100 µM (inactive) | > 100 µM (inactive) | > 100 µM (inactive) | > 100 µM (inactive) | > 100 µM (inactive) | > 100 µM (inactive) | > 100 µM (inactive) | > 100 µM (inactive) | > 100 µM (inactive) | > 100 µM (inactive) | > 100 µM (inactive) | > 100 µM (inactive) | > 100 µM (inactive)
8 | Nn1c(SCC(=O)O)nc2ccccc2c1=O | > 100 µM (inactive) | > 100 µM (inactive) | > 100 µM (inactive) | > 100 µM (inactive) | > 100 µM (inactive) | > 100 µM (inactive) | > 100 µM (inactive) | > 100 µM (inactive) | > 100 µM (inactive) | > 100 µM (inactive) | > 100 µM (inactive) | > 100 µM (inactive) | > 100 µM (inactive) | > 100 µM (inactive) | > 100 µM (inactive) | – | – | > 100 µM (inactive) | > 100 µM (inactive) | > 100 µM (inactive)
9 | COc1ccc(C(NCCNC(c2ccc(OC)c(OC)c2)c2cc3c(cc2O)OCO3)c2cc3c(cc2O)OCO3)cc1OC (stereo not given) | 0.918 µM (active) | 4.04 µM (inactive) | 6.22 µM (inactive) | 8.02 µM (inactive) | 7.45 µM (inactive) | 2.13 µM (inactive) | 2.12 µM (inactive) | 4.06 µM (inactive) | 2.64 µM (inactive) | 6.81 µM (inactive) | 0.682 µM (active) | 2.53 µM (inactive) | 1.64 µM (inactive) | 1.42 µM (inactive) | 2.51 µM (inactive) | 8.18 µM (inactive) | 1.71 µM (inactive) | 1.49 µM (inactive) | 2.89 µM (inactive) | 2.8 µM (inactive)
10 | N/N=C(/CC(O)(C(F)(F)F)C(F)(F)F)c1ccccc1 | > 10 µM (inactive) | > 10 µM (inactive) | > 10 µM (inactive) | > 10 µM (inactive) | > 10 µM (inactive) | > 10 µM (inactive) | > 10 µM (inactive) | > 10 µM (inactive) | > 10 µM (inactive) | > 10 µM (inactive) | > 10 µM (inactive) | > 10 µM (inactive) | > 10 µM (inactive) | > 10 µM (inactive) | > 10 µM (inactive) | > 10 µM (inactive) | > 10 µM (inactive) | > 10 µM (inactive) | > 10 µM (inactive) | –
11 | CCOc1cc(C2CC(c3ccc(NS(=O)(=O)c4cc([N+](=O)[O-])ccc4C)cc3)=NN2C(=O)c2ccccc2)ccc1O (stereo not given) | 19.4 µM (inactive) | 14.2 µM (inactive) | 18.7 µM (inactive) | 19.2 µM (inactive) | 10.2 µM (inactive) | 23.3 µM (inactive) | 20.1 µM (inactive) | 29.6 µM (inactive) | 18.5 µM (inactive) | 13.7 µM (inactive) | 23.8 µM (inactive) | – | 21.8 µM (inactive) | 17.3 µM (inactive) | 21.5 µM (inactive) | 17.1 µM (inactive) | 17.2 µM (inactive) | 18.2 µM (inactive) | 16.4 µM (inactive) | 15.2 µM (inactive)
12 | COc1ccc(CNNC(=O)c2cc[n+]([BH2-]C#N)cc2)cc1OC | > 100 µM (inactive) | > 100 µM (inactive) | > 100 µM (inactive) | > 100 µM (inactive) | > 100 µM (inactive) | > 100 µM (inactive) | > 100 µM (inactive) | > 100 µM (inactive) | > 100 µM (inactive) | > 100 µM (inactive) | > 100 µM (inactive) | > 100 µM (inactive) | > 100 µM (inactive) | > 100 µM (inactive) | – | – | > 100 µM (inactive) | > 100 µM (inactive) | > 100 µM (inactive) | > 100 µM (inactive)
13 | c1ccc([I+]c2ccccc2)cc1 | > 100 µM (inactive) | > 100 µM (inactive) | > 100 µM (inactive) | > 100 µM (inactive) | > 100 µM (inactive) | > 100 µM (inactive) | > 100 µM (inactive) | > 100 µM (inactive) | > 100 µM (inactive) | > 100 µM (inactive) | > 100 µM (inactive) | – | > 100 µM (inactive) | > 100 µM (inactive) | > 100 µM (inactive) | > 100 µM (inactive) | > 100 µM (inactive) | > 100 µM (inactive) | > 100 µM (inactive) | > 100 µM (inactive)
14 | CC(C)(S)C(N)C(=O)O (stereo not drawn) [DL-PENICILLAMINE] | > 100 µM (inactive) | > 100 µM (inactive) | > 100 µM (inactive) | > 100 µM (inactive) | > 100 µM (inactive) | > 100 µM (inactive) | > 100 µM (inactive) | > 100 µM (inactive) | > 100 µM (inactive) | > 100 µM (inactive) | > 100 µM (inactive) | > 100 µM (inactive) | > 100 µM (inactive) | > 100 µM (inactive) | > 100 µM (inactive) | > 100 µM (inactive) | – | > 100 µM (inactive) | > 100 µM (inactive) | –
